Test results from the NIST ThermoML archive (doi:10.1016/j.fluid.2005.12.003).

Conditions: 101.33 kPa, Liquid

CCCCn1cc[n+](C)c1.F[P-](F)(F)(F)(F)F [1-butyl-3-methylimidazolium hexafluorophosphate]
Conditions	mass density [kg/m3]
283.13 K	1380.43
293.12 K	1372.15
293.3 K	1371.88
302.83 K	1363.87
303.3 K	1363.48
312.68 K	1355.45
313.17 K	1355.18
322.64 K	1347.23
323.23 K	1346.72
332.56 K	1338.7
333.66 K	1337.95
342.41 K	1330.79
343.27 K	1329.87
